# Laboratory results reported in patent publication US20240350508A1, “USE OF EZH2 INHIBITORS FOR THE TREATMENT OF AORTIC VALVE STENOSIS” (INSERM (INSTITUT NATIONAL DE LA SANTÉ ET DE LA RECHERCHE …, priority 2021, published 2024).
# What was measured:
# [1] = system: Human Valvular Interstitial Cells (hVICs); assay: human M1 macrophages secretome-induced hVICs calcification (o-cresolphthalein complexone calcium measurement); assay type: cell-based; settings: M1 macrophages pre-treatment (5 μM, 72 h); n=1 VICs patient in triplicates, CM from n=1 volunteer; FIG. 4
# Source text: Human aortic valves form AS patients who underwent aortic valve surgical replacement were collected at Rouen University Hospital, starting on May 2 2016, after agreement of The CPP Nord-Ouest I (RCB: 2016-A00137-44). Human Valvular Interstitial Cells (hVICs) were isolated and cultured as already described. (Morvan, Arangalage et al. 2019) Briefly, aortic valve leaflets previously collected and washed in PBS containing antibiotics were cut into pieces and digested with type I collagenase (0.22 U/mg) for 3 hours at 37° C. […]
# (§1) Previously isolated hVICs were treated for 10 days with human monocytes and M1 macrophages CM diluted v/v with DMEM (Gibco, Cat #41966-029) in the presence or not of inorganic […] (Pi) at a final concentration up to 1.9 mM (0.9 mM of […] already present in DMEM). Treatment with conditioned medium was renewed every 2 days and calcium content in each well was measured with the o-cresolphthalein complexone colorimetric method. […]
# Data are obtained from indicated number of hVICs isolated from distinct patients. […] Data are expressed as mean values of control (DMSO (vehicle) treated monocytes or M1 macrophages)±SEM. When indicated, statistical significance was determined by non-parametric Kruskal-Wallis test followed by Dunns post-hoc test using Graphpad Prism 5 software. […]
# [2] = system: Human Valvular Interstitial Cells (hVICs); assay: human monocytes secretome-induced hVICs calcification (o-cresolphthalein complexone calcium measurement); assay type: cell-based
# Source text: Human aortic valves form AS patients who underwent aortic valve surgical replacement were collected at Rouen University Hospital, starting on May 2 2016, after agreement of The CPP Nord-Ouest I (RCB: 2016-A00137-44). Human Valvular Interstitial Cells (hVICs) were isolated and cultured as already described. (Morvan, Arangalage et al. 2019) Briefly, aortic valve leaflets previously collected and washed in PBS containing antibiotics were cut into pieces and digested with type I collagenase (0.22 U/mg) for 3 hours at 37° C. Digested valves are filters on 70 μm cell strainers to remove undigested valve parts and obtain a homogenous cell suspension resuspended in complete smooth muscle cell basal 2 medium (PromoCell, Heidelberg, Germany) with 10% Fetal Bovine Serum (FBS) Penicillin/Streptomycin (P/S, Sigma-Aldrich Cat #P4333). Cell suspension is then seeded into rat type collagen I (3 mg/ml, Gibco, Cat #A1048301) coated flask and incubated at 37° C., 5% CO2 for several days until reaching cell confluency. At this step hVICs are obtained and cultured in DMEM (Dulbecco's modified Eagle's medium, Gibco, Cat #41966-029) with 10% FBS and P/S until passage 4. […]
# as §1
# Data are obtained from indicated number of hVICs isolated from distinct patients. […] Data are expressed as mean values of control (DMSO (vehicle) treated monocytes or M1 macrophages)±SEM. When indicated, statistical significance was determined by non-parametric Kruskal-Wallis test followed by Dunns post-hoc test using Graphpad Prism 5 software. The use of non-parametric Kruskal-Wallis test was determined depending Shapiro-Wilk normality test data distribution.
compound,measurement,setting,value
CC[C@H](C)n1cc(C)c2c(C(=O)NCc3c(C)cc(C)[nH]c3=O)cc(-c3ccc(N4CCNCC4)nc3)cc21 [GSK-126],M1 secretome-induced hVICs calcification,[1],reduced
same,CAVD patient monocytes secretome-induced hVICs calcification,"[2]; monocytes from CAVD patients pre-treated with 5 μM for 72 h, CM1, hVICs with 1.9 mM Pi for 10 days, vs vehicle (DMSO), FIG. 2",significantly reduced
same,volunteer monocytes secretome-induced hVICs calcification,"[2]; monocytes from volunteers pre-treated with 5 μM for 72 h, CM1, hVICs with 1.9 mM Pi for 10 days, vs vehicle (DMSO), FIG. 1",significantly reduced
same,volunteer monocytes secretome-induced hVICs calcification 24 h after monocytes pre-treatment,"[2]; monocytes from volunteers, 72 h pre-treatment then new conditioned medium for 24 h (CM2) in the absence of inhibitor, 1.9 mM Pi, FIG. 3",the same result was obtained
